How the values were obtained:
green foxtail [1] = experiment: Test Example 5: herbicidal effect by foliage application, plastic box (Table 20, symbol G); type: in vivo, green foxtail (Setaria viridis); details: foliage application, 320 g/ha, three weeks after application
In short: (§1)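 Foliar spray test: emulsion formulation diluted in water to a set application rate, sprayed onto 14-day-old plants raised in diluvial soil at 25° C to 30° C under glass. Both herbicidal effect and crop effect rated visually three weeks later.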

velvetleaf [2] = experiment: Test Example 5: herbicidal effect by foliage application, plastic box (Table 20, symbol M); type: in vivo, velvetleaf (Abutilon theophrasti); details: foliage application, 320 g/ha, three weeks after application
In short: as §1

windgrass = experiment: Test Example 5: herbicidal effect by foliage application, plastic box (Table 20, symbol L); type: in vivo, windgrass (Apera spica-venti); details: foliage application, 320 g/ha, three weeks after application
In short: as §1

southern crabgrass [3] = experiment: Test Example 5: herbicidal effect by foliage application, plastic box (Table 20, symbol F); type: in vivo, southern crabgrass (Digitaria ciliaris); details: foliage application, 320 g/ha, three weeks after application
In short: as §1

Italian ryegrass = experiment: Test Example 5: herbicidal effect by foliage application, plastic box (Table 20, symbol K); type: in vivo, Italian ryegrass (Lolium multiflorum); details: foliage application, 320 g/ha, three weeks after application
In short: as §1

oval-leafed pondweed = experiment: Test Example 1: herbicidal activity, application before weed generation under submerged conditions (Table 16, symbol C); type: in vivo, oval-leafed pondweed (Monochoria vaginalis); details: amount of applied herbicide 320 g/ha
Description: [Test Example 1] Herbicidal Activity Test by Application before Weed Generation under Submerged Conditions After alluvial soil was placed into 1/10000 are of Wagner pot, water was poured and mixed to form a submerged condition having a water depth of 4 cm. Seeds of late watergrass, Japanese bulrush, and oval-leafed pondweed were sowed in a mixed manner in the aforementioned pot, and then 2.5 leaf stage rice plant seedlings were transplanted thereto. On the day of sowing seeds, the emulsion agent of the compound of the present invention prepared according to Formulation Example 2 was diluted with water so as to achieve a predetermined herbicide amount, and the diluted emulsion agent was applied to the surface of the water. The pot was placed in a greenhouse at 25° C. to 30° C. for growth of the plants. Three weeks after the herbicide application, the effect of the herbicide on each plant was evaluated according to the following criteria. Evaluation Criteria 5: Herbicidal rate of 90% or more (almost completely withered) 4: Herbicidal rate of 70% or more and less than 90% 3: Herbicidal rate of 40% or more and less than 70% 2: Herbicidal rate of 20% or more and less than 40% 1: Herbicidal rate of 5% or more and less than 20% 0: Herbicidal rate of 5% or less (almost no effect)

barnyard grass [4] = experiment: Test Example 5: herbicidal effect by foliage application, plastic box (Table 20, symbol H); type: in vivo, barnyard grass (Echinochloa crus-galli); details: foliage application, 320 g/ha, three weeks after application
In short: as §1

blackgrass = experiment: Test Example 5: herbicidal effect by foliage application, plastic box (Table 20, symbol J); type: in vivo, blackgrass (Alopecurus myosuroides); details: foliage application, 320 g/ha, three weeks after application
In short: as §1

rice flat sedge = experiment: Test Example 3: herbicidal effect by foliage application, Wagner pot (Table 18, symbol E); type: in vivo, rice flat sedge (Cyperus iria); details: amount of applied herbicide 320 g/ha
In short: (§2)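 Plants were sown in alluvial soil held under 0.1–0.5 cm standing water and grown 14 days in a greenhouse at 25–30 °C. An emulsifiable formulation, water-diluted to the set dose, was then sprayed onto the foliage, and effects were scored three weeks later using previously defined criteria.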

wild oat = experiment: Test Example 5: herbicidal effect by foliage application, plastic box (Table 20, symbol I); type: in vivo, wild oat (Avena fatua); details: foliage application, 320 g/ha, three weeks after application
In short: as §1

Chinese sprangletop = experiment: Test Example 3: herbicidal effect by foliage application, Wagner pot (Table 18, symbol D); type: in vivo, chinese sprangletop (Leptochloa chinensis); details: amount of applied herbicide 320 g/ha
In short: as §2

barnyard grass [5] = experiment: Test Example 3: herbicidal effect by foliage application, Wagner pot (Table 18, symbol H); type: in vivo, barnyard grass (Echinochloa crus-galli); details: amount of applied herbicide 320 g/ha
In short: as §2

lambsquarters [6] = experiment: Test Example 5: herbicidal effect by foliage application, plastic box (Table 20, symbol O); type: in vivo, lambsquarters (Chenopodium album); details: foliage application, 320 g/ha, three weeks after application
In short: as §1

persian speedwell = experiment: Test Example 5: herbicidal effect by foliage application, plastic box (Table 20, symbol R); type: in vivo, Persian speedwell (Veronica persica); details: foliage application, 320 g/ha, three weeks after application
In short: as §1

late watergrass = experiment: Test Example 1: herbicidal activity, application before weed generation under submerged conditions (Table 16, symbol A); type: in vivo, late watergrass (Echinochloa oryzicola); details: amount of applied herbicide 320 g/ha
In short: (§3)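 Alluvial soil was flooded to 4 cm depth, weed seeds were sown mixed and 2.5-leaf rice seedlings were transplanted. On sowing day, the compound's emulsion, diluted in water to a set dose, was applied to the water surface. Plants grew at 25–30 °C and were scored 0–5 after three weeks.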

chickweed = experiment: Test Example 5: herbicidal effect by foliage application, plastic box (Table 20, symbol P); type: in vivo, common chickweed (Stellaria media); details: foliage application, 320 g/ha, three weeks after application
In short: as §1

Japanese bulrush = experiment: Test Example 1: herbicidal activity, application before weed generation under submerged conditions (Table 16, symbol B); type: in vivo, Japanese bulrush (Schoenoplectus juncoides); details: amount of applied herbicide 320 g/ha
In short: as §3

lambsquarters [7] = experiment: Test Example 4: herbicidal effect by soil treatment (Table 19, symbol O); type: in vivo, lambsquarters (Chenopodium album); details: amount of applied herbicide 320 g/ha
In short: (§4)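 Herbicidal effect was rated 3 weeks after treatment, using the scoring criteria of an earlier test. The compound, formulated as an emulsion and diluted in water to a set herbicide amount, had been sprayed uniformly on soil over freshly sown seeds. Growth took place in a greenhouse at 25° C. to 30° C.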

redroot pigweed [8] = experiment: Test Example 5: herbicidal effect by foliage application, plastic box (Table 20, symbol N); type: in vivo, redroot pigweed (Amaranthus retroflexus); details: foliage application, 320 g/ha, three weeks after application
In short: as §1

southern crabgrass [9] = experiment: Test Example 4: herbicidal effect by soil treatment (Table 19, symbol F); type: in vivo, southern crabgrass (Digitaria ciliaris); details: amount of applied herbicide 320 g/ha
In short: as §4

barnyard grass [10] = experiment: Test Example 4: herbicidal effect by soil treatment (Table 19, symbol H); type: in vivo, barnyard grass (Echinochloa crus-galli); details: amount of applied herbicide 320 g/ha
In short: as §4

redroot pigweed [11] = experiment: Test Example 4: herbicidal effect by soil treatment (Table 19, symbol N); type: in vivo, redroot pigweed (Amaranthus retroflexus); details: amount of applied herbicide 320 g/ha
In short: as §4

green foxtail [12] = experiment: Test Example 4: herbicidal effect by soil treatment (Table 19, symbol G); type: in vivo, green foxtail (Setaria viridis); details: amount of applied herbicide 320 g/ha
In short: as §4

velvetleaf [13] = experiment: Test Example 4: herbicidal effect by soil treatment (Table 19, symbol M); type: in vivo, velvetleaf (Abutilon theophrasti); details: amount of applied herbicide 320 g/ha
In short: as §4

Compound	G: green foxtail, herbicidal effect grade (green foxtail [1])	M: velvetleaf, herbicidal effect grade (velvetleaf [2])	F: southern crabgrass, herbicidal effect grade (southern crabgrass [3])	Herbicidal effect, C: oval-leafed pondweed (oval-leafed pondweed)	H: barnyard grass, herbicidal effect grade (barnyard grass [4])	herbicidal effect on E: rice flat sedge (rice flat sedge)	herbicidal effect on D: Chinese sprangletop (Chinese sprangletop)	herbicidal effect on H: barnyard grass (barnyard grass [5])	O: lambsquarters, herbicidal effect grade (lambsquarters [6])	Herbicidal effect, A: late watergrass (late watergrass)	Herbicidal effect, B: Japanese bulrush (Japanese bulrush)	also measured
CCc1nn(C)c(=O)c(-c2c(-c3ccccc3OC)sc3ccc(F)cc23)c1O [2-414]	2 (Herbicidal rate of 20% or more and less than 40%)	3 (Herbicidal rate of 40% or more and less than 70%)	1 (Herbicidal rate of 5% or more and less than 20%)	2 (Herbicidal rate of 20% or more and less than 40%)	3 (Herbicidal rate of 40% or more and less than 70%)	3 (Herbicidal rate of 40% or more and less than 70%)	3 (Herbicidal rate of 40% or more and less than 70%)	4 (Herbicidal rate of 70% or more and less than 90%)	3 (Herbicidal rate of 40% or more and less than 70%)	2 (Herbicidal rate of 20% or more and less than 40%)	3 (Herbicidal rate of 40% or more and less than 70%)	L: windgrass, herbicidal effect grade (windgrass): 3 (Herbicidal rate of 40% or more and less than 70%); K: Italian ryegrass, herbicidal effect grade (Italian ryegrass): 1 (Herbicidal rate of 5% or more and less than 20%); J: blackgrass, herbicidal effect grade (blackgrass): 2 (Herbicidal rate of 20% or more and less than 40%); I: wild oat, herbicidal effect grade (wild oat): 0 (Herbicidal rate of 5% or less (almost no effect)); R: persian speedwell, herbicidal effect grade (persian speedwell): 5 (Herbicidal rate of 90% or more (almost completely withered)); P: chickweed, herbicidal effect grade (chickweed): 5 (Herbicidal rate of 90% or more (almost completely withered))
Cc1nn(C)c(=O)c(-c2c(-c3ccc(OCC=C(Cl)Cl)cc3)sc3ccc(F)cc23)c1O [2-442]	3 (Herbicidal rate of 40% or more and less than 70%)	4 (Herbicidal rate of 70% or more and less than 90%)	3 (Herbicidal rate of 40% or more and less than 70%)	2 (Herbicidal rate of 20% or more and less than 40%)	4 (Herbicidal rate of 70% or more and less than 90%)	3 (Herbicidal rate of 40% or more and less than 70%)	2 (Herbicidal rate of 20% or more and less than 40%)	5 (Herbicidal rate of 90% or more (almost completely withered))	5 (Herbicidal rate of 90% or more (almost completely withered))	3 (Herbicidal rate of 40% or more and less than 70%)	2 (Herbicidal rate of 20% or more and less than 40%)	herbicidal effect, O: lambsquarters (lambsquarters [7]): 1 (Herbicidal rate of 5% or more and less than 20%); N: redroot pigweed, herbicidal effect grade (redroot pigweed [8]): 5 (Herbicidal rate of 90% or more (almost completely withered)); herbicidal effect, F: southern crabgrass (southern crabgrass [9]): 0 (Herbicidal rate of 5% or less (almost no effect)); herbicidal effect, H: barnyard grass (barnyard grass [10]): 0 (Herbicidal rate of 5% or less (almost no effect)); herbicidal effect, N: redroot pigweed (redroot pigweed [11]): 3 (Herbicidal rate of 40% or more and less than 70%); herbicidal effect, G: green foxtail (green foxtail [12]): 0 (Herbicidal rate of 5% or less (almost no effect)); herbicidal effect, M: velvetleaf (velvetleaf [13]): 0 (Herbicidal rate of 5% or less (almost no effect))

— patent publication US20230085307A1, “PYRIDAZINONE COMPOUND AND HERBICIDE” (NISSAN CHEMICAL CORPORATION, priority 2019, published 2023)
